Drawing on patent US9409952B2, “Peptide-compound cyclization method” (Chugai Seiyaku Kabushiki Kaisha, priority 2011, dated 2016), this text covers Papp and microsomal CLint for 16 compounds.

The nature of series [1]: PAMPA (parallel artificial membrane permeability assay). The following applies: PAMPA. It counts as in vitro ADME. An outline of the steps:
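Artificial membrane was 10% (w/v) egg lecithin plus 0.5% (w/v) cholesterol in dodecane on a PVDF filter. A 10 mM DMSO stock was added at 0.5% (v/v) to donor buffer (50 mM MOPSO, pH 6.5, 5.0% glycocholic acid). After 18 h at 37 °C, LC/MS or LC/UV gave donor and acceptor levels for Pe.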

Series [2] can be described thus: Metabolic stability in human hepatic microsome. It is filed as in vitro ADME.
Where [3] appears, read: membrane permeation rate (Pe), 50 mM MOPSO buffer pH 6.5 with 5.0% glycocholic acid, 37° C., 18 hours, read-out: iPAMPA Pe.
Setting [4] is: microsomes, pH 7.4, human hepatic microsome, NADPH(+), read-out: CL NADPH(+).
[5] abbreviates: human, microsomes, pH 7.4, CL NADPH(+).

SMILES strings stand for the structures. Where two headings read alike, the source gives them in different places. Starred links: 1 amine or outer side, 2 acyl side, 3 side chain; linkers in the order of their positions; H or OH if unused. Positions of bridges follow the written chain, without caps; N, C: chain ends. Non-standard residues stand in square brackets, D forms with d. Residues, ends and D or L forms follow the SMILES beside them. *: point of attachment. NMePhe(3-Cl) = CN[C@@H](Cc1cccc(Cl)c1)C(=O)O; NMeF = CN[C@@H](Cc1ccccc1)C(=O)O; NMeGABA = CN(CCCC(=O)[*:2])[*:1]; NMeI = CC[C@H](C)[C@H](NC)C(=O)O; NMeβAla = CN(CCC(=O)[*:2])[*:1]; NMeL = CN[C@@H](CC(C)C)C(=O)O; NMeV = CN[C@H](C(=O)O)C(C)C; NMeA = CN[C@@H](C)C(=O)O; Piperidide = C1CCN(*)CC1; dNMeA = CN[C@H](C)C(=O)O; β3hA = C[C@H](N)CC(=O)O; Sar = CNCC(=O)O; tBu = CC(C)(C)*

Turning to `CC[C@H](C)[C@@H]1NC(=O)[C@H](CC(C)C)N(C)C(=O)[C@H]([C@@H](C)O)NC(=O)[C@H](CC(C)C)N(C)C(=O)[C@H](C(C)C)NC(=O)[C@H](Cc2ccccc2)N(C)C(=O)CCN(C)C(=O)C[C@@H](C(=O)N2CCC[C@H]2C(=O)N[C@H](C(=O)N(C)[C@@H](Cc2cccc(Cl)c2)C(=O)N(C)[C@@H](Cc2ccccc2)C(=O)N[C@H](C(=O)N2CCCCC2)[C@@H](C)CC)C(C)C)NC1=O` [DP-926] ([NMeβAla][NMeF]V[NMeL]T[NMeL]IDPV[NMePhe(3-Cl)][NMeF]I-Piperidide; lactam N-8), the Papp at 18 hours, 50 µM in series [1] (setting [3]) was found to be 0.1 ×10⁻⁶ cm/s. In addition, the microsomal CLint at 1 uM in series [2] (setting [4]) came out at 53 µL/min/mg.
Regarding `CC[C@H](C)[C@H]1C(=O)N[C@@H](C)CC(=O)N(C)[C@H](C)C(=O)N(C)[C@@H](CC(C)C)C(=O)N(C)[C@@H](CC(C)C)C(=O)N[C@@H]([C@@H](C)O)C(=O)N(C)CC(=O)N[C@@H](COC(C)(C)C)C(=O)N(C)[C@@H](CC(C)C)C(=O)N1C` [DP-800] (cyclo([NMeI][β3hA][dNMeA][NMeL][NMeL]T[Sar]S(tBu)[NMeL])), the Papp at 18 hours, 50 µM in series [1] (setting [3]) stood at 25 ×10⁻⁶ cm/s. The microsomal CLint at 1 uM in series [2] (setting [4]) stood at 58 µL/min/mg.
For `CC(C)C[C@H]1C(=O)N[C@@H]([C@@H](C)O)C(=O)N(C)[C@@H](C)C(=O)N[C@H](C(=O)N(C)[C@@H](Cc2ccccc2)C(=O)N[C@@H](C)C(=O)N2CCCCC2)CC(=O)N(C)[C@H](C)C(=O)N(C)[C@@H](Cc2ccccc2)C(=O)N(C)[C@@H](C)C(=O)N[C@@H](C)C(=O)N(C)[C@@H](C)C(=O)N(C)[C@@H](Cc2ccccc2)C(=O)N1C` [DP-353] ([dNMeA][NMeF][NMeA]A[NMeA][NMeF][NMeL]T[NMeA]D[NMeF]A-Piperidide; lactam N-10) the same measures were 16 ×10⁻⁶ cm/s and 13 µL/min/mg.
In the case of `CC[C@H](C)[C@H]1C(=O)N[C@@H](C)C(=O)N[C@H](C(=O)N2CCCCC2)CC(=O)N(C)[C@@H](C)C(=O)N[C@@H]([C@@H](C)O)C(=O)N(C)[C@@H](Cc2ccccc2)C(=O)N[C@@H](CC(C)C)C(=O)N2CCC[C@H]2C(=O)N(C)[C@@H](C(C)C)C(=O)N[C@@H](Cc2ccccc2)C(=O)N(C)CC(=O)N(C)[C@@H](CC(C)C)C(=O)N1C` [DP-58] ([NMeA]T[NMeF]LP[NMeV]F[Sar][NMeL][NMeI]AD-Piperidide; lactam N-12), the Papp at 18 hours, 50 µM in series [1] (setting [3]) worked out at 20 ×10⁻⁶ cm/s. In series [2] (human, human hepatic microsomes, pH 7.4, human hepatic microsome, NADPH(+), read-out: CL NADPH(+)), the microsomal CLint at 1 uM was determined as 27 µL/min/mg.
In turn, `CC[C@H](C)[C@@H]1NC(=O)[C@H](CC(C)C)N(C)C(=O)[C@H](C(C)C)N(C)C(=O)[C@H](C)NC(=O)[C@H](C)N(C)C(=O)[C@H](Cc2ccccc2)NC(=O)[C@H]([C@@H](C)O)NC(=O)[C@H](CC(C)C)N(C)C(=O)[C@H](CC(C)C)N(C)C(=O)[C@H](C)N(C)C(=O)C[C@@H](C(=O)N2CCCCC2)NC1=O` [DP-112] ([NMeA][NMeL][NMeL]TF[NMeA]A[NMeV][NMeL]ID-Piperidide; lactam N-11) displayed a Papp at 18 hours, 50 µM in series [1] (pH 6.5) of 35 ×10⁻⁶ cm/s. The same compound gave a microsomal CLint at 1 uM in series [2] (setting [5]) of 49 µL/min/mg.
Take `CC(C)C[C@H]1C(=O)N(C)[C@@H](Cc2ccccc2)C(=O)N[C@H](C(=O)N2CCCCC2)CC(=O)N(C)[C@@H](C)C(=O)N[C@@H]([C@@H](C)O)C(=O)N(C)CC(=O)N[C@@H](COC(C)(C)C)C(=O)N(C)[C@@H](Cc2ccccc2)C(=O)N1C` [DP-710] ([NMeA]T[Sar]S(tBu)[NMeF][NMeL][NMeF]D-Piperidide; lactam N-8): the Papp at 18 hours, 50 µM in series [1] (setting [3]) stood at 44 ×10⁻⁶ cm/s. For the same compound, the microsomal CLint at 1 uM in series [2] (setting [4]) was 121 µL/min/mg.
In series [1] (pH 6.5), `CC(C)C[C@H]1C(=O)N(C)[C@@H](C)C(=O)N[C@@H](C)C(=O)N[C@@H](C)CC(=O)N(C)CCC(=O)N(C)[C@@H](Cc2ccccc2)C(=O)N(C)[C@@H](C)C(=O)N[C@@H]([C@@H](C)O)C(=O)N(C)[C@@H](C)C(=O)N[C@@H](Cc2ccccc2)C(=O)N(C)[C@@H](C(C)C)C(=O)N1C` [DP-763] (cyclo(A[β3hA][NMeβAla][NMeF][NMeA]T[NMeA]F[NMeV][NMeL][NMeA])) had a Papp at 18 hours, 50 µM of 2.5 ×10⁻⁶ cm/s. Moreover, the microsomal CLint at 1 uM in series [2] (setting [5]) turned out to be 15 µL/min/mg.
For the compound `CC(C)C[C@H]1C(=O)N(C)[C@@H](Cc2ccccc2)C(=O)N[C@@H]([C@@H](C)O)C(=O)N(C)[C@@H](C)C(=O)N(C)[C@@H](Cc2ccccc2)C(=O)N(C)[C@@H](C)C(=O)N[C@H](C(=O)N2CCCCC2)CC(=O)N(C)CCC(=O)N(C)[C@@H](C(C)C)C(=O)N[C@@H](C)C(=O)N1C` [DP-337] ([NMeβAla][NMeV]A[NMeL][NMeF]T[NMeA][NMeF][NMeA]D-Piperidide; lactam N-10), in series [1] (setting [3]), the Papp at 18 hours, 50 µM amounted to 17 ×10⁻⁶ cm/s. For the same compound, the microsomal CLint at 1 uM in series [2] (setting [4]) was determined as 74 µL/min/mg.
For `CC[C@H](C)[C@H](NC(=O)[C@@H](NC(=O)[C@H](Cc1ccccc1)NC(=O)[C@@H]1CC(=O)N[C@H](C(C)C)C(=O)N(C)[C@@H](C)C(=O)N(C)[C@@H](CC(C)C)C(=O)N[C@@H]([C@@H](C)O)C(=O)N(C)CC(=O)N(C)[C@@H](Cc2ccccc2)C(=O)N(C)[C@@H](CC(C)C)C(=O)N(C)[C@@H](Cc2cccc(Cl)c2)C(=O)N(C)[C@@H](CC(C)C)C(=O)N[C@@H](C)C(=O)N1)C(C)C)C(=O)N1CCCCC1` [DP-949] ([dV][NMeA][NMeL]T[Sar][NMeF][NMeL][NMePhe(3-Cl)][NMeL]ADFVI-Piperidide; lactam N-11) the same measures were 0.11 ×10⁻⁶ cm/s and 37 µL/min/mg.
For `CC[C@H](C)[C@H]1C(=O)N(C)[C@@H](C)C(=O)N(C)[C@@H](CC(C)C)C(=O)N[C@@H](COC(C)(C)C)C(=O)N(C)[C@@H](CC(C)C)C(=O)N[C@H](C(=O)N2CCCCC2)CC(=O)N(C)[C@@H](C)C(=O)N(C)[C@@H](Cc2ccccc2)C(=O)N[C@@H](C)C(=O)N(C)[C@@H](CC(C)C)C(=O)N[C@@H]([C@@H](C)O)C(=O)N[C@@H](Cc2ccccc2)C(=O)N1C` [DP-90] ([NMeA][NMeF]A[NMeL]TF[NMeI][NMeA][NMeL]S(tBu)[NMeL]D-Piperidide; lactam N-12), in that order: 9.1 ×10⁻⁶ cm/s and 30 µL/min/mg.
In turn, `CC(C)C[C@H]1C(=O)N[C@@H](C)C(=O)N(C)[C@@H](Cc2ccccc2)C(=O)N2CCC[C@H]2C(=O)N(C)[C@@H](CC(C)C)C(=O)N(C)[C@@H](C(C)C)C(=O)N[C@H](C(=O)N2CCCCC2)CC(=O)N(C)CCCC(=O)N[C@@H]([C@@H](C)O)C(=O)N(C)CC(=O)N(C)[C@@H](Cc2ccccc2)C(=O)N1C` [DP-276] ([NMeGABA]T[Sar][NMeF][NMeL]A[NMeF]P[NMeL][NMeV]D-Piperidide; lactam N-11) showed a Papp at 18 hours, 50 µM in series [1] (pH 6.5) of 19 ×10⁻⁶ cm/s. In addition, the microsomal CLint at 1 uM in series [2] (setting [5]) is 68 µL/min/mg.
For `CC[C@H](C)[C@@H]1NC(=O)[C@H](Cc2ccccc2)NC(=O)[C@H](C(C)C)N(C)C(=O)CCCN(C)C(=O)C[C@@H](C(=O)N2CCCCC2)NC(=O)[C@H](Cc2ccccc2)NC(=O)[C@H](CC(C)C)N(C)C(=O)CNC(=O)[C@H](CC(C)C)N(C)C(=O)[C@H](C)N(C)C(=O)[C@H]([C@@H](C)O)NC(=O)[C@H](CC(C)C)NC1=O` [DP-273] ([NMeGABA][NMeV]FILT[NMeA][NMeL]G[NMeL]FD-Piperidide; lactam N-12) the same measures were 21 ×10⁻⁶ cm/s and 102 µL/min/mg.
On to `CC(C)C[C@H]1C(=O)N(C)[C@@H](C)C(=O)N(C)[C@@H](Cc2ccccc2)C(=O)N[C@@H]([C@@H](C)O)C(=O)N(C)[C@@H](C)C(=O)N(C)[C@@H](Cc2ccccc2)C(=O)N(C)[C@@H](C)C(=O)N[C@H](C(=O)N(C)[C@@H](Cc2ccccc2)C(=O)N[C@@H](C)C(=O)N2CCCCC2)CC(=O)N(C)CCC(=O)N(C)[C@@H](C)C(=O)N[C@@H](C)C(=O)N1C` [DP-346] ([NMeβAla][NMeA]A[NMeL][NMeA][NMeF]T[NMeA][NMeF][NMeA]D[NMeF]A-Piperidide; lactam N-11), for which the Papp at 18 hours, 50 µM in series [1] (setting [3]) was determined as 4 ×10⁻⁶ cm/s. The microsomal CLint at 1 uM in series [2] (setting [4]) worked out at 7 µL/min/mg.
For `CC(C)C[C@H]1C(=O)N(C)[C@@H](Cc2ccccc2)C(=O)N[C@@H]([C@@H](C)O)C(=O)N(C)[C@@H](C)C(=O)N[C@@H](C(C)C)C(=O)N(C)[C@@H](CC(C)C)C(=O)N(C)[C@@H](CC(C)C)C(=O)N[C@H](C(=O)N(C)[C@@H](Cc2ccccc2)C(=O)N[C@@H](C)C(=O)N2CCCCC2)CC(=O)N(C)CCC(=O)N1C` [DP-201] ([NMeβAla][NMeL][NMeF]T[NMeA]V[NMeL][NMeL]D[NMeF]A-Piperidide; lactam N-9) the same measures were 27 ×10⁻⁶ cm/s and 209 µL/min/mg.
For the compound `CC(C)C[C@H]1C(=O)N(C)[C@@H](C)C(=O)N[C@@H]([C@@H](C)O)C(=O)N(C)[C@@H](C)C(=O)N(C)[C@@H](C(C)C)C(=O)N[C@@H](COC(C)(C)C)C(=O)N[C@H](C(=O)N2CCCCC2)CC(=O)N(C)CCC(=O)N(C)[C@@H](Cc2ccccc2)C(=O)N[C@@H](C)C(=O)N(C)[C@@H](C)C(=O)N[C@@H](Cc2ccccc2)C(=O)N1C` [DP-465] ([NMeβAla][NMeF]A[NMeA]F[NMeL][NMeA]T[NMeA][NMeV]S(tBu)D-Piperidide; lactam N-12), the Papp at 18 hours, 50 µM in series [1] (setting [3]) amounted to 5.1 ×10⁻⁶ cm/s. Further, in series [2] (setting [4]), the microsomal CLint at 1 uM stood at 23 µL/min/mg.
Regarding `CC[C@H](C)[C@@H]1NC(=O)[C@H](Cc2ccccc2)N(C)C(=O)[C@H](CC(C)C)N(C)C(=O)[C@H](Cc2ccccc2)NC(=O)[C@H](C)N(C)C(=O)[C@H]([C@@H](C)O)NC(=O)[C@@H](C)N(C)C(=O)C[C@@H](C(=O)N2CCCCC2)NC(=O)[C@H](CC(C)C)N(C)C(=O)[C@H](C(C)C)N(C)C1=O` [DP-434] ([dNMeA]T[NMeA]F[NMeL][NMeF]I[NMeV][NMeL]D-Piperidide; lactam N-10), the Papp at 18 hours, 50 µM in series [1] (setting [3]) is 38 ×10⁻⁶ cm/s. Further, in series [2] (setting [4]), the microsomal CLint at 1 uM came out at 166 µL/min/mg.
